Laboratory results: patent US7947468B2, “Methods” (Medical Research Council, priority 2007, dated 2011)

Key:
LRRK2 = experiment: Concentration dependent phosphorylation of Nictide / LongLRRKtide by LRRK2; assay type: biochemical
Excerpt: A longer LRRKtide, with the +7 to +12 residues of the Thr 558 site was compared to the LRRKtide by phosphorylation with LRRK2. […] The LRRK2 affinity for the longLRRKtide is ten fold more than that that of LRRKtide.
A derived consensus sequences is shown below the positions. FIG. 24B depicts an alignment of the peptide substrate sequences previously used for LRRK2, LRRKtide and LongLRRKtide, along with a new peptide in which the preferred LRRK2 residues are substituted, henceforth referred to as Nictide. […] Calculated Km values are 6 μM for Nictide.

Human Platelets = details: non-specific serine/threonine kinase inhibitor; cited from earlier work

RLGRDKYKTLRQIRQGNTKQR (listed as Homo sapiens) [longLRRKtide]
LRRK2 affinity relative to LRRKtide (LRRK2; compared to LRRKtide): ten fold

RLGWWRFYTLRRARQGNTKQR [Nictide]
Km (LRRK2; 5 min reaction times, read-out: Calculated Km): 6 µM

CN[C@@H]1C[C@H]2O[C@@](C)([C@@H]1OC)n1c3ccccc3c3c4c(c5c6ccccc6n2c5c31)C(=O)NC4 [staurosporine]
effect on platelet behaviour (Human Platelets): form extremely long filopodia and not to spread on glass
